This is an account of results in patent US5437980A, “Phenanthridium dye staining of nucleic acids in living cells” (Molecular Probes, Inc., priority 1993, dated 1995).

Experiment [1] deals with peripheral blood lymphocytes. Briefly: Staining of peripheral blood lymphocytes, fluorometer (Example 11). In kind it is cell-based, goat. The conditions noted are these: on the scale of seconds.
The test system of experiment [2] is 3T3 mouse fibroblast cells. Briefly: Pulse-chase staining of lysosomal compartments in cultured mammalian cells (Example 10). It counts as cell-based. The procedure:
3T3 mouse fibroblast cells are grown on coverslips in calf serum-supplemented DMEM medium. The coverslips of cells are washed using the HBSS+, then hexidium solutions are prepared to final concentrations of 2 μM and 0.2 μM in HBSS+. The cells are incubated in the dye-containing medium for 2 min at room temperature then they are washed in HBSS +and viewed by epifluorescence microscopy using a long-pass fluorescein or a rhodamine filter set.

Experiment [3] has as its system free-living ciliate and flagellate protozoans. Briefly: Staining of protozoa (Example 7). In kind it is cell-based. The conditions noted are these: 1 μL of 10 mM dye in 1 mL culture, 10 min, ambient temperature. The procedure:
1 μL of 10 mM the 5-DAPP/LIVE dye stock is added to 1 mL of protozoan culture. The medium is incubated for 10 min at ambient temperature. 15 μL of this preparation is mounted with dye between a coverglass and the slide. Using this procedure, the nuclei of most cells of the free-living ciliate and flagellate protozoans are stained under these conditions.

A further experiment has as its system tissue culture cells. In words: Entry into / staining pattern of tissue culture cells. In kind it is cell-based. The source says:
In some tissue culture cells, the pattern of staining is different from that observed in plant cells or bacteria. In the former case, cells are usually loaded with a brief pulse of dye, followed by a chase of buffered saline solution. These cells show a pattern of staining first in numerous intracellular compartments; e.g. lysosomes. In addition to staining these organelles first, the dyes also undergo a spectral shift to shorter wavelengths when associated with this "early-labeled compartment." If the same cells are exposed to pulses of higher concentrations of the 5-DAPP/LIVE dyes, the staining appears in the mitochondria (tubular structures that are labeled with rhodamine 123) and then, finally, in the nucleus, where it stains the nucleoli very brightly. Nucleoli are the most prominently stained area of higher eukaryotic cells, while the nuclei and cytosol usually stain in a hazy or punctate pattern in these cells. […] In plant tissues distinct nuclei tend to label uniformly, but there is frequently significant binding of the dye to cell walls. The plant cells are usually dark except for cell walls and nuclei. The characteristic binding morphology obtained using the 5-DAPP/LIVE dyes thus makes them useful in certain circumstances for identifying the type of cell in a mixed population of cells.

A further experiment concerns Bacillus cereus. Briefly: Relative rate and extent of dye uptake into living Bacillus cereus (Example 2, FIG. 1). It counts as cell-based. As to conditions: 2 μM dye, 23° C. The procedure:
FIG. 1. Relative Uptake of Dyes into Living Cells. Uptake of ethidium, butidium, hexidium and octidium by Bacillus cereus as described in Example 2.
Bacillus cereus is grown in nutrient broth to log phase, washed by centrifugation, and resuspended in water to a density of 5×10^6 cfu/mL (as determined in Example 1). One centimeter pathlength acrylic cuvettes containing 3 mL of cell suspension are placed in a fluorescence spectrophotometer equipped with a temperature regulated cuvette holder and magnetic stirrer. The suspensions are brought to 23° C. prior to dye addition. To a cuvette of 3 mL bacteria suspension is added 3 μL of 2 mM dye stock solutions in DMSO to give a final dye concentration of 2 μM to produce the maximum attainable fluorescence/cell at the 600 nm emission wavelength (determined as in Example 1). The peak fluorescence excitation and emission wavelengths are determined by scanning the spectrum of the dye in suspensions of Bacillus cereus incubated for 30 min with the dye. Fluorescence intensity of the suspensions is measured using 488 nm excitation and 600 nm emission wavelengths. Sampling of fluorescence is carried out at 5 or 10 Hz until the fluorescence signal appears to stabilize.

The test system of experiment [4] is 3T3 mouse fibroblast cells. Briefly: Staining of nuclei in adherent cultured mammalian cells (Example 9). In kind it is cell-based. The conditions noted are these: 2 μM dye. The procedure: 3T3 mouse fibroblast cells are grown on coverslips in calf serum-supplemented DMEM medium. The coverslips of cells are washed in HBSS+. 5-DAPP/LIVE dye solutions are prepared to a final concentration of 2 μM in DMEM without serum. One group of 3T3 cells is treated with 300 μM chloroquine (group 1). These cells and control cells (group 2) not treated with chloroquine are incubated at 37° C. for 30 min. The two groups of cells are transferred to DMEM plus 5-DAPP/LIVE. The cells are incubated in the dye-containing medium for 30 min at room temperature and are subsequently washed in HBSS+and viewed by epifluorescence microscopy using a long-pass fluorescein or a rhodamine filter set.

The subject of another experiment is living cells. In words: Entry into / staining of living cells, general. In kind it is cell-based. The conditions noted are these: general summary.
For the next experiment, the system named is mushroom spores. Briefly: Staining of mushroom spores by fluorescence microscopy (Example 4). The conditions noted are these: 10-20 μM dye, 30 min, room temperature. It counts as cell-based, agaric. The procedure: Spores are rinsed from the gills on the underside of the cap of an agaric using a stream of distilled water. The spores are concentrated by centrifugation for 30 sec at 10,000 rpm in a microcentrifuge then a minimal volume of a 10-20 μM solution of the 5-DAPP/LIVE dye in distilled water is added. The suspension is incubated with the dye for 30 min at room temperature then a 15 μL aliquot of the suspension is mounted on between a coverglass and the slide for viewing in the presence of the dye. The cellular fluorescence is observed on a Zeiss Axioplan fluorescence microscope using fluorescein (long:pass emission) or rhodamine filter sets.

The structures appear in SMILES notation. Entries after “also recorded” stand apart in the source; their conditions may differ.

In the case of `CCCCCC[n+]1c(-c2ccccc2)c2cc(N)ccc2c2ccc(N)cc21` [hexidium], the “distribution of dye into nucleus of lymphocytes” value in experiment [1] was “virtually instantaneous”. In experiment [2] (0.2 μM, 2 min, room temperature), the “labeling after brief pulse-chase loading” value is “labeling of punctate structures in the cell cytoplasm; also recorded: green”. Also, in experiment [2] (2 μM, 2 min, room temperature), the “labeling after brief loading” value is “additional organellar staining, which is apparently mitochondrial”. Also, the “effect of chloroquine preincubation on staining” value in experiment [2] (300 μM chloroquine) is given as “reduces the amount of cytoplasmic staining”. In addition, the staining of nuclei entry in experiment [2] (under both conditions (0.2 and 2 μM)) is reported as “stained slightly, but only in the nucleolar regions”. For the same compound, in experiment [3], the “staining of nuclei of protozoans” value is reported as “slightly better than octidium”. In the experiment on tissue culture cells, the “staining of cells loaded to equilibrium / staining pattern” value is “both intense cytoplasmic and nuclear staining”. For the same compound, the extent of loading entry with Bacillus cereus was “optimal”. Further, the “rate of dye loading” value in the experiment with Bacillus cereus (488 nm excitation, 600 nm emission) is listed as “increases with carbon chain length”. In addition, in experiment [4] (group 1, 300 μM chloroquine), the “staining distribution, chloroquine-treated cells” value was “stained throughout, but with a greater relative intensity of staining in the nucleus”. The “staining distribution, control cells” value in experiment [4] (group 2, no chloroquine) is “relatively equal staining in the nucleus and cytoplasm”. For the same compound, in experiment [4] (one half hour, long-pass fluorescein filter (red with rhodamine excitation)), the “color of nucleus and cytoplasm” value was “orange”. Moreover, in the experiment on living cells, the membrane permeability result was “marked enhancement of membrane permeability in all systems”. The “entry into / staining of live cells” value with living cells (several types of cells) is “enters many types of live cells quickly and is bright”. In addition, the “staining of spores (in words)” value in the experiment with mushroom spores is reported as “stains all spores brightly; also recorded: stained most effectively”.
